Results from ChEMBL document CHEMBL1201861, “Genomics of Drug Sensitity in Cancer screening data, Wellcome Trust Sanger Institute”.
Structures can show the parent of a compound that is named as a salt.

Columns and labels:
DMS-273 = experiment: cells; format: functional, cell-based, Homo sapiens; conditions: Homo sapiens, DMS-273
Description: SANGER: Inhibition of human DMS-273 cell growth in a cell viability assay.

NCI-H28 = experiment: cells; format: functional, cell-based, Homo sapiens; conditions: Homo sapiens, NCI-H28;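 note: growth inhibition of human NCI-H28 cells, read out as cell viability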
Description: SANGER: Inhibition of human NCI-H28 cell growth in a cell viability assay.

CMK = experiment: cells; format: functional, cell-based, Homo sapiens; conditions: Homo sapiens, CMK;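 note: growth inhibition of CMK cells, read out as cell viability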
Description: SANGER: Inhibition of human CMK cell growth in a cell viability assay.

BHY = experiment: cells; format: functional, cell-based, Homo sapiens; conditions: Homo sapiens, BHY;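 note: cell growth inhibition read out by a viability assay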
Description: SANGER: Inhibition of human BHY cell growth in a cell viability assay.

DBTRG-05MG = experiment: cells; format: functional, cell-based, Homo sapiens; conditions: Homo sapiens, DBTRG-05MG;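 note: cell viability assay measuring growth inhibition of human DBTRG-05MG cells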
Description: SANGER: Inhibition of human DBTRG-05MG cell growth in a cell viability assay.

NCI-H1522 = experiment: cells; format: functional, cell-based, Homo sapiens; conditions: Homo sapiens, NCI-H1522;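 note: growth inhibition of NCI-H1522 cells, read out with a cell viability assay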
Description: SANGER: Inhibition of human NCI-H1522 cell growth in a cell viability assay.

MIA PaCa-2 = experiment: cells; format: functional, cell-based, Homo sapiens; conditions: Homo sapiens, MIA PaCa-2;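 note: growth inhibition of MIA PaCa-2 cells, read out with a cell viability assay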
Description: SANGER: Inhibition of human MIA-PaCa-2 cell growth in a cell viability assay.

CWR22R = experiment: cells; format: functional, cell-based, Homo sapiens; conditions: Homo sapiens, 22Rv1;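 note: growth inhibition of 22Rv1 cells, read out with a cell viability assay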
Description: SANGER: Inhibition of human 22RV1 cell growth in a cell viability assay.

SW1417 = experiment: cells; format: functional, cell-based, Homo sapiens; conditions: Homo sapiens, SW1417;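 note: growth inhibition of human SW1417 cells, read out with a cell viability assay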
Description: SANGER: Inhibition of human SW1417 cell growth in a cell viability assay.

NCI-H520 = experiment: cells; format: functional, cell-based, Homo sapiens; conditions: Homo sapiens, NCI-H520;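 note: growth inhibition of NCI-H520 cells, measured by a cell viability assay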
Description: SANGER: Inhibition of human NCI-H520 cell growth in a cell viability assay.

UACC-812 = experiment: cells; format: functional, cell-based, Homo sapiens; conditions: Homo sapiens, UACC-812
Description: SANGER: Inhibition of human UACC-812 cell growth in a cell viability assay.

NCI-H630 = experiment: cells; format: functional, cell-based, Homo sapiens; conditions: Homo sapiens, NCI-H630;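 note: growth inhibition of NCI-H630 cells, read out with a cell viability assay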
Description: SANGER: Inhibition of human NCI-H630 cell growth in a cell viability assay.

EFO-21 = experiment: cells; format: functional, cell-based, Homo sapiens; conditions: Homo sapiens, EFO-21;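 note: growth inhibition of EFO-21 cells measured with a viability assay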
Description: SANGER: Inhibition of human EFO-21 cell growth in a cell viability assay.

MDA-MB-175-VII = experiment: cells; format: functional, cell-based, Homo sapiens; conditions: Homo sapiens, MDA-MB-175-VII
CAL-51 = experiment: cells; format: functional, cell-based, Homo sapiens; conditions: Homo sapiens, CAL-51;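 note: human CAL-51 cell line, growth inhibition read out via a cell viability assay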
Description: SANGER: Inhibition of human CAL-51 cell growth in a cell viability assay.

REH = experiment: cells; format: functional, cell-based, Homo sapiens; conditions: Homo sapiens, REH;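 note: growth inhibition of REH cells determined with a cell viability read-out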
Description: SANGER: Inhibition of human REH cell growth in a cell viability assay.

OVCAR-3 = experiment: cells; format: functional, cell-based, Homo sapiens; conditions: Homo sapiens, OVCAR-3;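 note: growth inhibition of human OVCAR-3 cells, determined by a cell viability assay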
Description: SANGER: Inhibition of human OVCAR-3 cell growth in a cell viability assay.

Calu-3 = experiment: cells; format: functional, cell-based, Homo sapiens; conditions: Homo sapiens, Calu-3;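 note: growth inhibition of human Calu-3 cells, determined with a cell viability assay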
Description: SANGER: Inhibition of human Calu-3 cell growth in a cell viability assay.

DG-75 = experiment: cells; format: functional, cell-based, Homo sapiens; conditions: Homo sapiens, DG-75;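 note: growth inhibition of DG-75 cells, read out with a cell viability assay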
Description: SANGER: Inhibition of human DG-75 cell growth in a cell viability assay.

C32 = experiment: cells; format: functional, cell-based, Homo sapiens; conditions: Homo sapiens, C32;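 note: cell viability assay, with IC50 reflecting inhibition of C32 cell growth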
Description: SANGER: Inhibition of human C32 cell growth in a cell viability assay.

TE-441-T = experiment: cells; format: functional, cell-based, Homo sapiens; conditions: Homo sapiens, TE-441-T
Description: SANGER: Inhibition of human TE-441-T cell growth in a cell viability assay.

VMRC-RCZ = experiment: cells; format: functional, cell-based, Homo sapiens; conditions: Homo sapiens, VMRC-RCZ
Description: SANGER: Inhibition of human VMRC-RCZ cell growth in a cell viability assay.

HCT-116 = experiment: cells; format: functional, cell-based, Homo sapiens; conditions: Homo sapiens, HCT-116
Description: SANGER: Inhibition of human HCT-116 cell growth in a cell viability assay.

RPMI-2650 = experiment: cells; format: functional, cell-based, Homo sapiens; conditions: Homo sapiens, RPMI-2650
Description: SANGER: Inhibition of human RPMI-2650 cell growth in a cell viability assay.

KYSE-70 cell line = experiment: cells; format: functional, cell-based, Homo sapiens; conditions: Homo sapiens, KYSE-70;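 note: cell viability assay read-out, with IC50 expressing suppression of KYSE-70 cell growth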
Description: SANGER: Inhibition of human KYSE-70 cell growth in a cell viability assay.

CAL-72 = experiment: cells; format: functional, cell-based, Homo sapiens; conditions: Homo sapiens, CAL-72;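 note: cell viability assay measuring inhibition of proliferation in the CAL-72 cell line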
Description: SANGER: Inhibition of human CAL-72 cell growth in a cell viability assay.

PF-382 = experiment: cells; format: functional, cell-based, Homo sapiens; conditions: Homo sapiens, PF-382
Description: SANGER: Inhibition of human PF-382 cell growth in a cell viability assay.

NCI-H1437 = experiment: cells; format: functional, cell-based, Homo sapiens; conditions: Homo sapiens, NCI-H1437;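 note: growth inhibition of human NCI-H1437 cells, read out by a cell viability assay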
Description: SANGER: Inhibition of human NCI-H1437 cell growth in a cell viability assay.

COLO-679 = experiment: cells; format: functional, cell-based, Homo sapiens; conditions: Homo sapiens, COLO-679
Description: SANGER: Inhibition of human COLO-679 cell growth in a cell viability assay.

NCI-H1694 = experiment: cells; format: functional, cell-based, Homo sapiens; conditions: Homo sapiens, NCI-H1694;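 note: cell viability assay measuring inhibition of growth in human NCI-H1694 cells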
Description: SANGER: Inhibition of human NCI-H1694 cell growth in a cell viability assay.

LOUCY = experiment: cells; format: functional, cell-based, Homo sapiens; conditions: Homo sapiens, LOUCY;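 note: growth inhibition of human LOUCY cells, read out with a cell viability assay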
Description: SANGER: Inhibition of human LOUCY cell growth in a cell viability assay.

M14 = experiment: cells; format: functional, cell-based, Homo sapiens; conditions: Homo sapiens, M14;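 note: growth inhibition of M14 cells, read out with a cell viability assay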
Description: SANGER: Inhibition of human M14 cell growth in a cell viability assay.

OE19 = experiment: cells; format: functional, cell-based, Homo sapiens; conditions: Homo sapiens, OE19;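 note: growth inhibition of OE19 cells, measured through a cell viability read-out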
Description: SANGER: Inhibition of human OE19 cell growth in a cell viability assay.

DK-MG = experiment: cells; format: functional, cell-based, Homo sapiens; conditions: Homo sapiens, DK-MG;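 note: growth inhibition of DK-MG cells, read out with a cell viability assay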
Description: SANGER: Inhibition of human DK-MG cell growth in a cell viability assay.

C3A = experiment: cells; format: functional, cell-based, Homo sapiens; conditions: Homo sapiens, C3A;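 note: growth inhibition of C3A human cells, quantified with a cell viability readout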
Description: SANGER: Inhibition of human C3A cell growth in a cell viability assay.

ME-180 = experiment: cells; format: functional, cell-based, Homo sapiens; conditions: Homo sapiens, ME-180;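 note: cell viability assay measuring growth inhibition of ME-180 cells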
Description: SANGER: Inhibition of human ME-180 cell growth in a cell viability assay.

HCC1569 = experiment: cells; format: functional, cell-based, Homo sapiens; conditions: Homo sapiens, HCC1569;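 note: growth inhibition of human HCC1569 cells, read out with a cell viability assay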
Description: SANGER: Inhibition of human HCC1569 cell growth in a cell viability assay.

SBC-5 = experiment: cells; format: functional, cell-based, Homo sapiens; conditions: Homo sapiens, SBC-5;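 note: cell viability assay read-out, IC50 is the concentration that inhibits growth of the cells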
Description: SANGER: Inhibition of human SBC-5 cell growth in a cell viability assay.

COLO-680N = experiment: cells; format: functional, cell-based, Homo sapiens; conditions: Homo sapiens, COLO-680N;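 note: cell viability assay used to measure inhibition of COLO-680N cell growth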
Description: SANGER: Inhibition of human COLO-680N cell growth in a cell viability assay.

ChaGo-K-1 = experiment: cells; format: functional, cell-based, Homo sapiens; conditions: Homo sapiens, ChaGo-K-1;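 note: growth inhibition of ChaGo-K-1 cells, read out with a cell viability assay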
Description: SANGER: Inhibition of human ChaGo-K-1 cell growth in a cell viability assay.

MKN-1 = experiment: cells; format: functional, cell-based, Homo sapiens; conditions: Homo sapiens, MKN-1;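 note: growth inhibition of human MKN1 cells, read out by a cell viability measurement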
Description: SANGER: Inhibition of human MKN1 cell growth in a cell viability assay.

BC1 cell line = experiment: SANGER: Inhibition of human BC-1 cell growth in a cell viability assay.; format: functional, cell-based; conditions: Homo sapiens, BC1
Panc1005 = experiment: cells; format: functional, cell-based, Homo sapiens; conditions: Homo sapiens, Panc1005;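 note: growth inhibition of human PANC-10-05 cells, measured by a cell viability assay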
Description: SANGER: Inhibition of human PANC-10-05 cell growth in a cell viability assay.

PC-14 = experiment: cells; format: functional, cell-based, Homo sapiens; conditions: Homo sapiens, PC-14;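 note: cell viability assay measuring inhibition of PC-14 cell growth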
Description: SANGER: Inhibition of human PC-14 cell growth in a cell viability assay.

In the case of `N#Cc1c(O)c2c(-c3ccc(-c4ccccc4O)cc3)csc2[nH]c1=O`, the IC50 (DMS-273) is reported as greater than 1.02 µM, the IC50 (NCI-H28) is reported as greater than 1.02 µM and the IC50 (CMK) is reported as 0.0022 µM. It also gave an IC50 (BHY) greater than 1.02 µM, an IC50 (DBTRG-05MG) greater than 1.02 µM and an IC50 (NCI-H1522) of 0.194 µM. For the same molecule, the IC50 (MIA PaCa-2) was greater than 1.02 µM, the IC50 (CWR22R) was greater than 1.02 µM and the IC50 (SW1417) was greater than 1.02 µM. For the same molecule, the IC50 (NCI-H520) was greater than 1.02 µM, the IC50 (UACC-812) was greater than 1.02 µM and the IC50 (NCI-H630) was greater than 1.02 µM. The IC50 (EFO-21) was greater than 1.02 µM, the IC50 (MDA-MB-175-VII) was greater than 1.02 µM and the IC50 (CAL-51) was greater than 1.02 µM. For the same molecule, the IC50 (REH) was 0.104 µM, the IC50 (OVCAR-3) was greater than 1.02 µM and the IC50 (Calu-3) was greater than 1.02 µM. The IC50 (DG-75) was greater than 1.02 µM, the IC50 (C32) was greater than 1.02 µM and the IC50 (TE-441-T) was greater than 1.02 µM. For the same molecule, the IC50 (VMRC-RCZ) was greater than 1.02 µM, the IC50 (HCT-116) was greater than 1.02 µM and the IC50 (RPMI-2650) was greater than 1.02 µM. It also gave an IC50 (KYSE-70 cell line) greater than 1.02 µM, an IC50 (CAL-72) greater than 1.02 µM and an IC50 (PF-382) of 0.0859 µM. It also gave an IC50 (NCI-H1437) greater than 1.02 µM, an IC50 (COLO-679) greater than 1.02 µM and an IC50 (NCI-H1694) of 0.977 µM. The IC50 (LOUCY) was 0.0964 µM, the IC50 (M14) was greater than 1.02 µM and the IC50 (OE19) was greater than 1.02 µM. It also gave an IC50 (DK-MG) greater than 1.02 µM, an IC50 (C3A) greater than 1.02 µM and an IC50 (ME-180) greater than 1.02 µM. It also gave an IC50 (HCC1569) greater than 1.02 µM, an IC50 (SBC-5) greater than 1.02 µM and an IC50 (COLO-680N) greater than 1.02 µM. It also gave an IC50 (ChaGo-K-1) greater than 1.02 µM, an IC50 (MKN-1) greater than 1.02 µM and an IC50 (BC1 cell line) of 0.0697 µM. It also gave an IC50 (Panc1005) greater than 1.02 µM and an IC50 (PC-14) greater than 1.02 µM.
With `COC1=CC(c2cc3ccccc3[nH]2)=N/C1=C\c1[nH]c(C)cc1C` [OBATOCLAX MESYLATE] the IC50 (DMS-273) was 0.0285 µM, the IC50 (NCI-H28) was 0.741 µM and the IC50 (CMK) was 0.0302 µM. The IC50 (BHY) was less than 0.0625 µM, the IC50 (DBTRG-05MG) was 2.06 µM and the IC50 (NCI-H1522) was 2.02 µM. The IC50 (MIA PaCa-2) was 0.233 µM, the IC50 (CWR22R) was 0.274 µM and the IC50 (SW1417) was less than 0.0625 µM. The IC50 (NCI-H520) was 0.129 µM, the IC50 (UACC-812) was 11.7 µM and the IC50 (EFO-21) was 0.841 µM. For the same molecule, the IC50 (MDA-MB-175-VII) was 1.69 µM, the IC50 (CAL-51) was 0.04 µM and the IC50 (REH) was 0.0464 µM. The IC50 (OVCAR-3) was 0.516 µM, the IC50 (Calu-3) was 0.253 µM and the IC50 (DG-75) was 6.89 µM. The IC50 (C32) was 0.452 µM, the IC50 (TE-441-T) was 1.43 µM and the IC50 (VMRC-RCZ) was 0.403 µM. It also gave an IC50 (HCT-116) of 0.088 µM, an IC50 (RPMI-2650) of 0.023 µM and an IC50 (KYSE-70 cell line) of 0.0695 µM. It also gave an IC50 (CAL-72) of 0.534 µM, an IC50 (PF-382) of 0.0494 µM and an IC50 (NCI-H1437) of 0.408 µM. For the same molecule, the IC50 (COLO-679) was less than 0.0625 µM, the IC50 (NCI-H1694) was 0.919 µM and the IC50 (LOUCY) was less than 0.0625 µM. For the same molecule, the IC50 (M14) was 0.46 µM, the IC50 (OE19) was 1.66 µM and the IC50 (DK-MG) was 0.71 µM. The IC50 (C3A) was 0.374 µM, the IC50 (ME-180) was 1.44 µM and the IC50 (HCC1569) was 0.018 µM. For the same molecule, the IC50 (SBC-5) was 0.212 µM, the IC50 (COLO-680N) was 0.0505 µM and the IC50 (ChaGo-K-1) was 0.612 µM. For the same molecule, the IC50 (MKN-1) was 0.304 µM, the IC50 (BC1 cell line) was 0.0602 µM and the IC50 (Panc1005) was 0.115 µM. The IC50 (PC-14) was 0.0525 µM.
With `C=C(c1ccc(C(=O)O)cc1)c1cc2c(cc1C)C(C)(C)CCC2(C)C` [BEXAROTENE] the IC50 (DMS-273) was greater than 8 µM, the IC50 (NCI-H28) was greater than 8 µM and the IC50 (CMK) was greater than 8 µM. For the same molecule, the IC50 (BHY) was greater than 8 µM, the IC50 (DBTRG-05MG) was greater than 8 µM and the IC50 (NCI-H1522) was greater than 8 µM. The IC50 (MIA PaCa-2) was greater than 8 µM, the IC50 (CWR22R) was greater than 8 µM and the IC50 (SW1417) was greater than 8 µM. It also gave an IC50 (NCI-H520) greater than 8 µM, an IC50 (UACC-812) greater than 8 µM and an IC50 (EFO-21) greater than 8 µM. It also gave an IC50 (MDA-MB-175-VII) greater than 8 µM, an IC50 (CAL-51) greater than 8 µM and an IC50 (REH) greater than 8 µM. The IC50 (OVCAR-3) was greater than 8 µM, the IC50 (Calu-3) was greater than 8 µM and the IC50 (DG-75) was greater than 8 µM. For the same molecule, the IC50 (C32) was greater than 8 µM, the IC50 (TE-441-T) was greater than 8 µM and the IC50 (VMRC-RCZ) was greater than 8 µM. It also gave an IC50 (HCT-116) greater than 8 µM, an IC50 (RPMI-2650) greater than 8 µM and an IC50 (KYSE-70 cell line) greater than 8 µM. For the same molecule, the IC50 (CAL-72) was greater than 8 µM, the IC50 (PF-382) was greater than 8 µM and the IC50 (NCI-H1437) was greater than 8 µM. For the same molecule, the IC50 (COLO-679) was greater than 8 µM, the IC50 (NCI-H1694) was greater than 8 µM and the IC50 (LOUCY) was greater than 8 µM. It also gave an IC50 (M14) greater than 8 µM, an IC50 (OE19) greater than 8 µM and an IC50 (DK-MG) of 0.0512 µM. The IC50 (C3A) was greater than 8 µM, the IC50 (ME-180) was greater than 8 µM and the IC50 (HCC1569) was greater than 8 µM. For the same molecule, the IC50 (SBC-5) was greater than 8 µM, the IC50 (COLO-680N) was greater than 8 µM and the IC50 (ChaGo-K-1) was greater than 8 µM. For the same molecule, the IC50 (MKN-1) was greater than 8 µM, the IC50 (BC1 cell line) was greater than 8 µM and the IC50 (Panc1005) was greater than 8 µM. The IC50 (PC-14) was greater than 8 µM.
